Assay results as given in article PMC5399635 (The Journal of Pharmacology and Experimental Therapeutics, 2017).
Several values for one entry are separate records, joined by “and”; a condition that tells them apart may be missing. Equal values may be shown once. Read-outs that look alike come from different tables or passages of the source.

Experiments:
[1] = molecular target: T1, κ-opioid receptors (Oryctolagus cuniculus, UniProt G1SJ19); experiment: Isolated field-stimulated rabbit vas deferens assay; conditions: concentrations up to 10 µM
T1 construct: isolated tissue preparation from the rabbit vas deferens; from tissue; host or cells: rabbit vas deferens
T1 sequence (G1SJ19 1-383): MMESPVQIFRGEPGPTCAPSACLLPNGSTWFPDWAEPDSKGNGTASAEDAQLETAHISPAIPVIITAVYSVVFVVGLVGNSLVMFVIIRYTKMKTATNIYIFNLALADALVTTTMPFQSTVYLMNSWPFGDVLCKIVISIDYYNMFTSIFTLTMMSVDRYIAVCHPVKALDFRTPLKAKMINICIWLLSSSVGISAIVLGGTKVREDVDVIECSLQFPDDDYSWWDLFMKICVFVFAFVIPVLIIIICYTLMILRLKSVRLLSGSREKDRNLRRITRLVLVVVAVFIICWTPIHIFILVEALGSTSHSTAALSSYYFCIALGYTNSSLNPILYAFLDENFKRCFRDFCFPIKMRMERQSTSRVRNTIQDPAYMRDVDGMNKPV
Method: These were single experiments conducted across a range of 12 half-log concentrations, from […], with 1 replicate per concentration; experimental conditions were as described for [^35S]GTPγS binding experiments with human recombinant µ-opioid receptors. Functional activity at κ-opioid receptors was also determined in an isolated tissue preparation from the rabbit vas deferens, using methods detailed previously ([Oka et al., 1981]).

[2] = molecular target: T2, rat κ-opioid receptor (Rattus norvegicus, UniProt P34975); experiment: Radioligand binding, κ-opioid receptor ([3H]U69593)
T2 construct: expressed in transfected cells; host or cells: CHO cells
T2 sequence (P34975 whole entry): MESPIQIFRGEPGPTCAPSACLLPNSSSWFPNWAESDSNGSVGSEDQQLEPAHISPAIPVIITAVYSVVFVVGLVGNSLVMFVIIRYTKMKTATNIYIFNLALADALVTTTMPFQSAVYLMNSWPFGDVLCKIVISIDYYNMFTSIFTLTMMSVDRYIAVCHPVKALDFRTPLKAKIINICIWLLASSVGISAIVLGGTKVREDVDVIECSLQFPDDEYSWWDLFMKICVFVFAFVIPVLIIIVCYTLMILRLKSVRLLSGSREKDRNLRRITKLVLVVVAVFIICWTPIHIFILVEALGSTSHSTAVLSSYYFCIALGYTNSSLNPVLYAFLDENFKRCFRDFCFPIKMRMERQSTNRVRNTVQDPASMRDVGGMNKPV
Method: Competitive inhibition studies were performed on cloned opioid receptors expressed in membranes of Chinese hamster ovary (CHO) cells and conducted in triplicate (n = 3 independent experiments).
Radioligand binding assays were performed to evaluate the ability of these agents to inhibit specific radioligand binding to cloned opioid receptor subtypes. Half-maximal inhibitory concentration (IC50), equilibrium dissociation constant for the inhibitor (Ki), and negative log of the equilibrium dissociation constant for the inhibitor (pKi) values were obtained. The receptor binding methods used for µ ([Zhang et al., 1998])-, δ ([Simonin et al., 1994])-, and κ ([Meng et al., 1993])-opioid receptors have been described previously, with the exception that 100 mM NaCl was added to the incubation buffer in the µ-opioid receptor binding assay. All assays were conducted in 200-µl volume. All assay incubations were terminated by filtration, and bound radioligand was quantitated by liquid scintillation spectrometry. The IC50 values were determined by nonlinear regression analysis of the competition curves generated with the mean of duplicate values using Hill equation curve fitting. The inhibition constants (Ki) were calculated using the Cheng-Prusoff equation. The pKi results from three independent experiments were analyzed for significant differences by one-way analysis of variance (ANOVA) followed by Bonferroni multiple comparison test.

[3] = test system: opioid-induced constipation; design: method as in Chey et al., 2014; conditions: two trials, ref Chey et al., 2014, cited from earlier work
[4] = design: method as in Bui et al., 2016; conditions: quinidine; ref Bui et al., 2016; cited from earlier work
[5] = test system: other transporters; design: method as in earlier work; conditions: ref 2013 AstraZeneca unpublished data; cited from earlier work
[6] = In situ rat brain perfusion model; conditions: 30 s perfusion, test compound 20 μM, atenolol 50 μM, antipyrine 5 μM, mean ± S.D.

For `C=CCN1CC[C@]23c4c5ccc(O)c4O[C@H]2[C@@H](OCCOCCOCCOCCOCCOCCOCCOC)CC[C@@]3(O)[C@H]1C5` [Naloxegol, naloxegol], the “agonist activity at κ-opioid receptors” value [1] was “no agonist activity”, the Ki ([2]; cloned rat κ-opioid receptors, read-out: geometric mean Ki) was 8.65 nM and 8.6 nM and the Ki ([2]; no measure named, read-out: κ-opioid receptor value expressed as plasma concentration (Fig. 5) (converted)) was 8.59 nM. For the same compound, the “12-week response rate versus placebo” value ([3]; 12.5 mg once daily) was “significantly higher than with placebo in only one trial”, the “12-week response rate versus placebo” value ([3]; 25 mg once daily) was “Significantly more patients responded” and the “CNS distribution when coadministered with a strong P-gp inhibitor” value [4] was “unaffected”. The “substrate status for other transporters” value [5] was “not a substrate of other transporters” and the “Brain Uptake” value [6] was 4.1 ± 1.4 pmol/g brain/s.
